From patent US20140213446A1, “HERBICIDAL COMPOSITIONS AND METHODS USING COMBINATIONS OF 4-AMINO-3-CHLORO-6-(4-CHLORO-2-FLUORO-3-METHOXYPHENYL)PYRIDINE-2-CARBOXYLIC ACID OR A DERIVATIVE THEREOF AND AN ARYLOXYPHENOXY PROPIONATE ACCASE INHIBITOR HERBICIDE” (DOW AGROSCIENCES LLC, priority 2013, published 2014)

Experiments:
Experiment in all cases: Postemergent herbicidal activity, greenhouse
Format in all cases: in vivo
[1] = tested on: VIOTR Viola tricolor L. (wild violet)
Description: (§1) Evaluation of Postemergent Herbicidal Activity. Seeds or nutlets of the desired test plant species were planted in Sun Gro Metro-Mix® 360 planting mixture, which typically has a pH of 6.0 to 6.8 and an organic matter content of about 30 percent, in plastic pots with a surface area of 64 square centimeters (cm^2). When required to ensure good germination and healthy plants, a fungicide treatment and/or other chemical or physical treatment was applied. The plants were grown for 7-21 days (d) in a greenhouse with an approximate 15 hour (h) photoperiod which was maintained at about 23-29° C. during the day and 22-28° C. during the night. Nutrients and water were added on a regular basis and supplemental lighting was provided with overhead metal halide 1000-Watt lamps as necessary. The plants were employed for testing when they reached the first or second true leaf stage.
(§2) A weighed amount, determined by the highest rate to be tested, of each test compound was placed in a 25 milliliter (mL) glass vial and was dissolved in 4 mL of a 97:3 volume per volume (v/v) mixture of acetone and dimethyl sulfoxide (DMSO) to obtain concentrated stock solutions. […] The concentrated stock solutions obtained were diluted with 20 mL of an aqueous mixture containing acetone, water, isopropyl alcohol, DMSO, Atplus 411F crop oil concentrate, and Triton® X-155 surfactant in a 48.5:39:10:1.5:1.0:0.02 v/v ratio to obtain spray solutions containing the highest application rates. Additional application rates were obtained by serial dilution of 12 mL of the high rate solution into a solution containing 2 mL of a 97:3 v/v mixture of acetone and DMSO and 10 mL of an aqueous mixture containing acetone, water, isopropyl alcohol, DMSO, Atplus 411F crop oil concentrate, and Triton X-155 surfactant in a 48.5:39:10:1.5:1.0:0.02 v/v ratio to obtain ½X, ¼X, ⅛X and 1/16X rates of the high rate. Compound requirements are based upon a 12 mL application volume at a rate of 187 liters per hectare (L/ha). Formulated compounds were applied to the plant material with an overhead Mandel track sprayer equipped with 8002E nozzles calibrated to deliver 187 L/ha over an application area of 0.503 square meters (m^2) at a spray height of 18 inches ([…]) above the average plant canopy height. Control plants were sprayed in the same manner with the solvent blank.
(§3) Treatments consisted of the methyl ester of 4-amino-3-chloro-6-(4-chloro-2-fluoro-3-methoxyphenyl)pyridine-2-carboxylic acid (Cmpd 1) as technical grade material and fluazifop-P-butyl (Fusilade® DX), haloxyfop-P-methyl (GALLANT® super), and quizalofop-P-ethyl (Assure® II) alone and in combination. The form of compound of formula (I) and fluazifop-P-butyl, haloxyfop-P-methyl, and quizalofop-P-ethyl were applied on an acid equivalent basis.
(§4) The treated plants and control plants were placed in a greenhouse as described above and watered by subirrigation to prevent wash-off of the test compounds. After 14 d, the condition of the test plants as compared with that of the untreated plants was determined visually and scored on a scale of 0 to 100 percent where 0 corresponds to no injury and 100 corresponds to complete kill.
(§5) Results of testing mixtures in accordance with this disclosure and of the components of the mixtures separately against various common weeds in greenhouse trials are reported in the following tables. The reported values are of percent (%) control or percent (%) injury, visually rated. Colby's equation was used to determine the herbicidal effects expected from the mixtures (Colby, S. R. Calculation of the synergistic and antagonistic response of herbicide combinations. Weeds 1967, 15, 20-22.).
(§6) More specifically, the following equation was used to calculate the expected activity of mixtures containing two active ingredients, A and B:
(§7) A=observed efficacy of active ingredient A at the same concentration as used in the mixture; B=observed efficacy of active ingredient B at the same concentration as used in the mixture. […]

[2] = tested on: CHEAL Chenopodium album L. (common lambsquarters)
Description: as §1, §2, §3, §4, §5, §6, §7

[3] = tested on: IPOHE Ipomoea hederacea (L.) Jacq. (ivyleaf momingglory)
Description: as §1, §2, §3, §4, §5, §6, §7

[4] = tested on: AMARE Amaranthus retroflexus L. (redroot pigweed)
Description: as §1, §2, §3, §4, §5, §6, §7

[5] = tested on: BRSNW Brassica napus (winter oilseed rape)
Description: as §1, §2, §3, §4, §5, §6, §7

[6] = tested on: CIRAR Cirsium arvense (L.) Scop. (Canada thistle)
Description: as §1, §2, §3, §4, §5, §6, §7

[7] = tested on: STEME Stellaria media (L.) Vill. (common chickweed)
Description: as §1, §2, §3, §4, §5, §6, §7

Measured: Visual Growth Reduction (%) 14 DAA Obs

CCOC(=O)[C@@H](C)Oc1ccc(Oc2cnc3cc(Cl)ccc3n2)cc1 [Quizalofop-P-ethyl, quizalofop-P-ethyl]
0%: [1]; Quizalofop-P 37.5 g ae/ha | [1]; Quizalofop-P 75 g ae/ha | [1]; Quizalofop-P 150 g ae/ha | [2]; Quizalofop-P 37.5 g ae/ha | [2]; Quizalofop-P 75 g ae/ha | [2]; Quizalofop-P 150 g ae/ha | [3]; Quizalofop-P 37.5 g ae/ha | [3]; Quizalofop-P 75 g ae/ha | [3]; Quizalofop-P 150 g ae/ha | [4]; Quizalofop-P 37.5 g ae/ha | [4]; Quizalofop-P 75 g ae/ha | [4]; Quizalofop-P 150 g ae/ha | [5]; Quizalofop-P 37.5 g ae/ha | [5]; Quizalofop-P 75 g ae/ha | [5]; Quizalofop-P 150 g ae/ha | [6]; Quizalofop-P 37.5 g ae/ha | [6]; Quizalofop-P 75 g ae/ha | [6]; Quizalofop-P 150 g ae/ha | [7]; Quizalofop-P 37.5 g ae/ha | [7]; Quizalofop-P 75 g ae/ha | [7]; Quizalofop-P 150 g ae/ha
